What was measured:
[1] = XTT assay, cytotoxicity of the hybrid molecules towards SH-SY5Y; format: cell-based; conditions: human, SH-SY5Y cells
Procedure: To this end, we first tested whether the hybrid molecules carried any cytotoxicity themselves. […] No considerable toxicity (≥95% viability) was caused by the hybrid molecules towards either cell line, even at the highest concentration of 250 µM (Fig. 8).
The SH-SY5Y and HEK-293 cell lines (2 × 10^5 cells/mL) were cultured in 96-well tissue microplates (100 µL/well) and allowed to adhere overnight at 37 °C. The conjugate molecules were dissolved in DMEM:nutrient mixture F12 (Ham’s) (1:1) (Biological Industries, Israel) at different concentrations. The negative control was prepared as medium without hybrid molecules and treated in the same manner. 100 µL of medium with or without hybrid molecules were added to each well in triplicate. Following incubation for 24 h at 37 °C, cell viability was evaluated using the 2,3-bis(2-methoxy-4-nitro-5-sulfophenyl)-2H-tetrazolium-5-carboxanilide (XTT) cell proliferation assay kit (Biological Industries, Israel) according to the manufacturer’s instructions. Briefly, 100 µL of activation reagent was added to 5 mL of XTT reagent, followed by the addition of 50 µL of activated-XTT solution to each well. After 2 h incubation at 37 °C, color intensity was measured using an ELISA microplate reader at 450 nm and 630 nm. Results are presented as mean and mean standard error. Each experiment was repeated minimum three times.

hIAPP = biological target: T1, hIAPP (Homo sapiens, UniProt P10997); assay: CD spectroscopy of hIAPP aggregated with the tested molecules; conditions: increasing doses up to 5-fold molar excess
T1 construct: hIAPP is a 37-amino acid neuroendocrine peptide hormone; purchased Peptide 2.0 (USA)
T1 sequence (P10997 34-70 limits assumed): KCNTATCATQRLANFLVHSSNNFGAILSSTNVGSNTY
Procedure: CD analysis was performed also for hIAPP (Fig. 2f and Supplementary Fig. 5). […] With different degrees of effectiveness, the presence of all tested hybrid molecules caused a reduction of the intensity of the CD signal, indicating an overall lower of β-sheet content of hIAPP (Fig. 2f and Supplementary Fig. 5).
(§1) The blank was subtracted from the acquired CD spectra. For the CD study in the presence of the tryptophan-galacosylamine molecules, the spectra of hybrid molecules were also recorded separately and subtracted from the respective sample spectra. The normalized data were plotted using Origin pro 2015 software.

[2] = biological target: T2, pre-formed fibrils of hIAPP (Homo sapiens, UniProt P10997); assay: CD spectroscopy of pre-formed hIAPP fibrils with the tested molecules; conditions: hIAPP : molecule (1:5)
T2 construct: hIAPP is a 37-amino acid neuroendocrine peptide hormone; purchased Peptide 2.0 (USA)
T2 sequence (P10997 34-70 limits assumed): T1 sequence (P10997 34-70 limits assumed)
Procedure: For efficient treatment of proteinopathies it may be advantageous to disassemble amyloid aggregates/fibrils which are usually already present at the time of diagnosis[75]–[77]. […] Then, various doses of the hybrid molecules were added to the pre-formed fibrils and the mixtures were incubated for additional 10 h. The process of disaggregation was monitored by ThT-binding assay, CD spectroscopy, TEM and Congo red staining (Fig. 5).
as §1

## NC(Cc1c[nH]c2ccccc12)C(=O)NC(Cc1c[nH]c2ccccc12)C(=O)O (centres unmarked) [WW]
[1]; 0.2µM
  viability at 24 h, 0.2 µM: 98.8%
[1]; 1 µM
  viability at 24 h, 1 µM: 100%
[1]; 10 µM
  viability at 24 h, 10 µM: 98.4%
[1]; 50 µM
  viability at 24 h, 50 µM: 90.9%
[1]
  viability at 24 h, 250 µM: 88.4%
[1]; SH-SY5Y, 24 h
  viability at 24 h, 250 µM: ~88%
hIAPP
  effect on hIAPP secondary structure (CD), in words: substantial effect
[2]; wavelength 190.00
  Normalized CD spectra: -1159830.00
[2]; wavelength 190.50
  Normalized CD spectra: -799592.59
[2]; wavelength 191.00
  Normalized CD spectra: -466296.57
[2]; wavelength 191.50
  Normalized CD spectra: -159943.13
[2]; wavelength 192.00
  Normalized CD spectra: 119467.75
[2]; wavelength 192.50
  Normalized CD spectra: 371936.05
[2]; wavelength 193.00
  Normalized CD spectra: 597461.77
[2]; wavelength 193.50
  Normalized CD spectra: 796044.93
[2]; wavelength 194.00
  Normalized CD spectra: 967685.51
[2]; wavelength 194.50
  Normalized CD spectra: 1212380.23
[2]; wavelength 195.00
  Normalized CD spectra: 1290140.24
[2]; wavelength 195.50
  Normalized CD spectra: 1323180.24
[2]; wavelength 196.00
  Normalized CD spectra: 1393960.26
[2]; wavelength 196.50
  Normalized CD spectra: 1424490.23
[2]; wavelength 197.00
  Normalized CD spectra: 1413320.40
[2]; wavelength 197.50
  Normalized CD spectra: 1387150.18
[2]; wavelength 198.00
  Normalized CD spectra: 1299100.11
[2]; wavelength 198.50
  Normalized CD spectra: 1256630.40
[2]; wavelength 199.00
  Normalized CD spectra: 1187490.08
[2]; wavelength 199.50
  Normalized CD spectra: 1142090.27
[2]; wavelength 200.00
  Normalized CD spectra: 1101290.79
[2]; wavelength 200.50
  Normalized CD spectra: 1045740.12
[2]; wavelength 201.00
  Normalized CD spectra: 960554.59
[2]; wavelength 201.50
  Normalized CD spectra: 884170.56
[2]; wavelength 202.00
  Normalized CD spectra: 793224.29
[2]; wavelength 202.50
  Normalized CD spectra: 710397.29
[2]; wavelength 203.00
  Normalized CD spectra: 623023.93
[2]; wavelength 203.50
  Normalized CD spectra: 548091.19
[2]; wavelength 204.00
  Normalized CD spectra: 460178.98
[2]; wavelength 204.50
  Normalized CD spectra: 362812.96
[2]; wavelength 205.00
  Normalized CD spectra: 267913.28
[2]; wavelength 205.50
  Normalized CD spectra: 183033.71
[2]; wavelength 206.00
  Normalized CD spectra: 99125.43
[2]; wavelength 206.50
  Normalized CD spectra: 21202.95
[2]; wavelength 207.00
  Normalized CD spectra: -58441.14
[2]; wavelength 207.50
  Normalized CD spectra: -134432.91
[2]; wavelength 208.00
  Normalized CD spectra: -202839.97
[2]; wavelength 208.50
  Normalized CD spectra: -260187.32
[2]; wavelength 209.00
  Normalized CD spectra: -323573.72
[2]; wavelength 209.50
  Normalized CD spectra: -382447.61
[2]; wavelength 210.00
  Normalized CD spectra: -437399.79
[2]; wavelength 210.50
  Normalized CD spectra: -489520.86
[2]; wavelength 211.00
  Normalized CD spectra: -539599.27
[2]; wavelength 211.50
  Normalized CD spectra: -576249.85
[2]; wavelength 212.00
  Normalized CD spectra: -613623.93
[2]; wavelength 212.50
  Normalized CD spectra: -639995.46
[2]; wavelength 213.00
  Normalized CD spectra: -663323.35
[2]; wavelength 232.00
  Normalized CD spectra: -332238.92
[2]; wavelength 232.50
  Normalized CD spectra: -324045.26
[2]; wavelength 233.00
  Normalized CD spectra: -310464.00
[2]; wavelength 233.50
  Normalized CD spectra: -306656.69
[2]; wavelength 234.00
  Normalized CD spectra: -298160.53
[2]; wavelength 234.50
  Normalized CD spectra: -288025.21
[2]; wavelength 235.00
  Normalized CD spectra: -277617.45
[2]; wavelength 235.50
  Normalized CD spectra: -265647.30
[2]; wavelength 236.00
  Normalized CD spectra: -250898.81
[2]; wavelength 236.50
  Normalized CD spectra: -242222.13
[2]; wavelength 237.00
  Normalized CD spectra: -231613.39
[2]; wavelength 237.50
  Normalized CD spectra: -223355.72
[2]; wavelength 238.00
  Normalized CD spectra: -218172.86
[2]; wavelength 238.50
  Normalized CD spectra: -206535.49
[2]; wavelength 239.00
  Normalized CD spectra: -191737.01
[2]; wavelength 239.50
  Normalized CD spectra: -180445.52
[2]; wavelength 240.00
  Normalized CD spectra: -179664.78
[2]; wavelength 240.50
  Normalized CD spectra: -172296.10
[2]; wavelength 241.00
  Normalized CD spectra: -162102.32
[2]; wavelength 241.50
  Normalized CD spectra: -148455.67
[2]; wavelength 242.00
  Normalized CD spectra: -149233.62
[2]; wavelength 242.50
  Normalized CD spectra: -139443.53
[2]; wavelength 243.00
  Normalized CD spectra: -134411.20
[2]; wavelength 243.50
  Normalized CD spectra: -135270.09
[2]; wavelength 244.00
  Normalized CD spectra: -127740.28
[2]; wavelength 244.50
  Normalized CD spectra: -125334.77
[2]; wavelength 245.00
  Normalized CD spectra: -119297.62
[2]; wavelength 245.50
  Normalized CD spectra: -115863.12
[2]; wavelength 246.00
  Normalized CD spectra: -113285.78
[2]; wavelength 246.50
  Normalized CD spectra: -114529.09
[2]; wavelength 247.00
  Normalized CD spectra: -113972.59
[2]; wavelength 247.50
  Normalized CD spectra: -115521.93
[2]; wavelength 248.00
  Normalized CD spectra: -110033.91
[2]; wavelength 248.50
  Normalized CD spectra: -107626.80
[2]; wavelength 249.00
  Normalized CD spectra: -94087.61
[2]; wavelength 249.50
  Normalized CD spectra: -91943.44
[2]; wavelength 250.00
  Normalized CD spectra: -91987.89
[2]; wavelength 250.50
  Normalized CD spectra: -83982.51
[2]; wavelength 251.00
  Normalized CD spectra: -78786.13
[2]; wavelength 251.50
  Normalized CD spectra: -77492.66
[2]; wavelength 252.00
  Normalized CD spectra: -81506.91
[2]; wavelength 252.50
  Normalized CD spectra: -74477.64
[2]; wavelength 253.00
  Normalized CD spectra: -78503.70
[2]; wavelength 253.50
  Normalized CD spectra: -82822.05
[2]; wavelength 254.00
  Normalized CD spectra: -81558.46
[2]; wavelength 254.50
  Normalized CD spectra: -84392.86
[2]; wavelength 255.00
  Normalized CD spectra: -84114.71
[2]; wavelength 255.50
  Normalized CD spectra: -85462.25
[2]; wavelength 256.00
  Normalized CD spectra: -87106.95
[2]; wavelength 256.50
  Normalized CD spectra: -89048.81
[2]; wavelength 257.00
  Normalized CD spectra: -91287.84
[2]; wavelength 257.50
  Normalized CD spectra: -93824.03
[2]; wavelength 258.00
  Normalized CD spectra: -96657.38
